Assays:
[1] = test system: WT and mutant cell lines (MCF7); test: Proliferation of WT and mutant ER MCF7 cell lines with other SERDs; format: cell-based; details: WT and all mutant cell lines
MCF7 WT cells = test: Proliferation assay; format: cell-based; details: Homo sapiens, MCF7, read-out: IC50, growth inhibition
in vivo = details: mouse, serum, other: AZD9496 oral (gavage); fulvestrant subcutaneous
[2] = test system: MCF7 inducible HA-ER WT tumors; test: MCF7 inducible HA-ER WT xenograft; format: in vivo, mice; details: fulvestrant 200mg/kg twice weekly s.c.
[3] = test system: MCF7 inducible HA-ER S463P tumors; test: MCF7 inducible HA-ER S463P xenograft; format: in vivo, mice; details: fulvestrant 200mg/kg twice weekly s.c.
E380Q mutant ER = test: ERE-luciferase inhibition, doxycycline-induced E380Q ER in MCF7 cells; format: cell-based; details: MCF7, regular medium
S463P mutant ER = test: ERE-luciferase inhibition, doxycycline-induced S463P ER in MCF7 cells; format: cell-based; details: MCF7, regular medium
[4] = test system: MCF7 inducible HA-ER E380Q tumors; test: MCF7 inducible HA-ER E380Q xenograft; format: in vivo, mice; details: fulvestrant 200mg/kg twice weekly s.c.

Row | Structure (SMILES) | inhibition of cell proliferation [1] | IC50 (MCF7 WT cells) [nM] | AUC (in vivo) [µM·h] | Cmax (in vivo) [µM] | tumor growth inhibition [2] | tumor growth inhibition [3] | fold higher IC99 as compared to WT (E380Q mutant ER) [fold] | fold higher IC99 as compared to WT (S463P mutant ER) [fold] | tumor growth inhibition [4]
1 | C[C@@H]1Cc2c([nH]c3ccccc23)[C@@H](c2c(F)cc(/C=C/C(=O)O)cc2F)N1CC(C)(C)F [AZD9496, (E)-3-(3,5-Difluoro-4-((1R,3R)-2-(2-fluoro-2-methylpropyl)-3-methyl-2,3,4,9-tetra hydro-1H–pyrido[3,4-b]indol-1-yl)phenyl)acrylic Acid] | capable of inhibiting cell proliferation by all mutants | 0.4 | 218 | 59 |  |  |  |  | 
2 | CC/C(=C(/c1ccc(/C=C/C(=O)O)cc1)c1ccc2[nH]ncc2c1)c1ccc(F)cc1Cl [GDC-0810] | capable of inhibiting cell proliferation by all mutants |  |  |  |  |  |  |  | 
3 | C[C@]12C[C@H](c3ccc(OCCCCCS(=O)(=O)CCCC(F)(F)C(F)(F)F)cc3)[C@@H]3c4ccc(O)cc4CC[C@H]3[C@@H]1CC[C@@H]2O [RU58668] | capable of inhibiting cell proliferation by all mutants |  |  |  |  |  |  |  | 
4 | C[C@]12CC[C@@H]3c4ccc(O)cc4C[C@@H](CCCCCCCCC[S+]([O-])CCCC(F)(F)C(F)(F)F)[C@H]3[C@@H]1CC[C@@H]2O (some centres unmarked) [fulvestrant] |  | 0.4 | 5.29 | 0.65 | fully inhibited the growth | fully inhibited the growth | 2 | 2 | fully inhibited the growth

Source: article PMC5340622 (Cancer discovery, 2016)
